Test results: ChEMBL document CHEMBL3885881, “DrugMatrix”

Species on record: Rattus norvegicus
Type: toxicity, organism-based, Sprague-Dawley
Settings: in vivo, po, route oral GAVAGE, vehicle 100 % SALINE; for ABSOLUTE EOSINOPHIL / ABSOLUTE LYMPHOCYTE / ABSOLUTE MONOCYTE / ABSOLUTE SEGMENTED NEUTROPHIL / BASOPHIL / EOSINOPHIL / ERYTHROCYTE COUNT / HEMATOCRIT / HEMOGLOBIN / LEUKOCYTE COUNT / LYMPHOCYTE / MEAN CORPUSCULAR HEMOGLOBIN / MEAN CORPUSCULAR HEMOGLOBIN CONCENTRATION / MONOCYTE / NEUTROPHIL / NUCLEATED RED BLOOD CELLS / PLATELET COUNT: tissue Blood; for ALANINE AMINOTRANSFERASE / ALBUMIN / ALKALINE PHOSPHATASE / ASPARTATE AMINOTRANSFERASE / BLOOD UREA NITROGEN / CARBON DIOXIDE / CHLORIDE / CHOLESTEROL / CREATINE PHOSPHOKINASE / CREATININE / GLUCOSE / LACTATE DEHYDROGENASE / LIPASE / PHOSPHORUS / POTASSIUM / SODIUM / TOTAL BILIRUBIN / TOTAL PROTEIN / URIC ACID: tissue Plasma
[1] = 700 mg/kg, 24 h, dose level Low, time 1 day
[2] = 2100 mg/kg, 6 h, dose level High, time 0.25 day
[3] = 2100 mg/kg, 24 h, dose level High, time 1 day

Description: DrugMatrix - Regimen: Single

CN(C)C=O [DIMETHYLFORMAMIDE]
ABSOLUTE EOSINOPHIL [1]: 0 CELLS/uL
ABSOLUTE LYMPHOCYTE [1]: 11354.83 CELLS/uL
ABSOLUTE MONOCYTE [1]: 102.33 CELLS/uL
ABSOLUTE SEGMENTED NEUTROPHIL [1]: 726.17 CELLS/uL
BASOPHIL [1]: 0%
EOSINOPHIL [1]: 0%
ERYTHROCYTE COUNT [1]: 5.12 x10E6/uL
HEMATOCRIT [1]: 33.43%
HEMOGLOBIN [1]: 13.52 G/DL
LEUKOCYTE COUNT [1]: 12.18 x10E3/uL
LYMPHOCYTE [1]: 93.17%
MEAN CORPUSCULAR HEMOGLOBIN [1]: 26.43 pg
MEAN CORPUSCULAR HEMOGLOBIN CONCENTRATION [1]: 40.52 G/DL
MONOCYTE [1]: 0.83%
NEUTROPHIL [1]: 6%
NUCLEATED RED BLOOD CELLS [1]: 0 /100WBC
PLATELET COUNT [1]: 1092.67 x10E3/uL
ALANINE AMINOTRANSFERASE [1]: 23.17 u/L
ALBUMIN [1]: 4.17 G/DL
ALKALINE PHOSPHATASE [1]: 336.83 u/L
ASPARTATE AMINOTRANSFERASE [1]: 50.5 u/L
BLOOD UREA NITROGEN [1]: 12.5 mg/dL
CARBON DIOXIDE [1]: 31.17 mmol/L
CHLORIDE [1]: 96.83 MEQ/L
CHOLESTEROL [1]: 74.83 mg/dL
CREATINE PHOSPHOKINASE [1]: 314.83 u/L
CREATININE [1]: 0.19 mg/dL
GLUCOSE [1]: 144.5 mg/dL
LACTATE DEHYDROGENASE [1]: 95 u/L
LIPASE [1]: 9.67 u/L
PHOSPHORUS [1]: 10.98 mg/dL
POTASSIUM [1]: 5.69 MEQ/L
SODIUM [1]: 142.42 MEQ/L
TOTAL BILIRUBIN [1]: 0.12 mg/dL
TOTAL PROTEIN [1]: 6.2 G/DL
URIC ACID [1]: 0.68 mg/dL
ABSOLUTE EOSINOPHIL [2]: 125.17 CELLS/uL
ABSOLUTE LYMPHOCYTE [2]: 14316 CELLS/uL
ABSOLUTE MONOCYTE [2]: 63 CELLS/uL
ABSOLUTE SEGMENTED NEUTROPHIL [2]: 1412.5 CELLS/uL
BASOPHIL [2]: 0%
EOSINOPHIL [2]: 0.83%
ERYTHROCYTE COUNT [2]: 5.21 x10E6/uL
HEMATOCRIT [2]: 35.07%
HEMOGLOBIN [2]: 12.68 G/DL
LEUKOCYTE COUNT [2]: 15.92 x10E3/uL
LYMPHOCYTE [2]: 89.67%
MEAN CORPUSCULAR HEMOGLOBIN [2]: 24.33 pg
MEAN CORPUSCULAR HEMOGLOBIN CONCENTRATION [2]: 36.2 G/DL
MONOCYTE [2]: 0.33%
NEUTROPHIL [2]: 9.17%
NUCLEATED RED BLOOD CELLS [2]: 0 /100WBC
PLATELET COUNT [2]: 1045.5 x10E3/uL
ALANINE AMINOTRANSFERASE [2]: 61 u/L
ALBUMIN [2]: 4.12 G/DL
ALKALINE PHOSPHATASE [2]: 276.83 u/L
ASPARTATE AMINOTRANSFERASE [2]: 108.5 u/L
BLOOD UREA NITROGEN [2]: 6.5 mg/dL
CARBON DIOXIDE [2]: 20.17 mmol/L
CHLORIDE [2]: 106 MEQ/L
CHOLESTEROL [2]: 72.83 mg/dL
CREATINE PHOSPHOKINASE [2]: 210.67 u/L
CREATININE [2]: 0.24 mg/dL
GLUCOSE [2]: 180 mg/dL
LACTATE DEHYDROGENASE [2]: 149.33 u/L
LIPASE [2]: 8.17 u/L
PHOSPHORUS [2]: 13.73 mg/dL
SODIUM [2]: 144.38 MEQ/L
TOTAL BILIRUBIN [2]: 0.1 mg/dL
TOTAL PROTEIN [2]: 5.32 G/DL
URIC ACID [2]: 2.23 mg/dL
ABSOLUTE EOSINOPHIL [3]: 20.83 CELLS/uL
ABSOLUTE LYMPHOCYTE [3]: 12212.83 CELLS/uL
ABSOLUTE MONOCYTE [3]: 201.33 CELLS/uL
ABSOLUTE SEGMENTED NEUTROPHIL [3]: 481.67 CELLS/uL
BASOPHIL [3]: 0%
EOSINOPHIL [3]: 0.17%
ERYTHROCYTE COUNT [3]: 5.11 x10E6/uL
HEMATOCRIT [3]: 32.92%
HEMOGLOBIN [3]: 13.1 G/DL
LEUKOCYTE COUNT [3]: 12.92 x10E3/uL
LYMPHOCYTE [3]: 94.67%
MEAN CORPUSCULAR HEMOGLOBIN [3]: 25.65 pg
MEAN CORPUSCULAR HEMOGLOBIN CONCENTRATION [3]: 39.83 G/DL
MONOCYTE [3]: 1.5%
NEUTROPHIL [3]: 3.67%
NUCLEATED RED BLOOD CELLS [3]: 0.17 /100WBC
PLATELET COUNT [3]: 1033.5 x10E3/uL
ALANINE AMINOTRANSFERASE [3]: 24.17 u/L
ALBUMIN [3]: 4.07 G/DL
ALKALINE PHOSPHATASE [3]: 292.33 u/L
ASPARTATE AMINOTRANSFERASE [3]: 43.17 u/L
BLOOD UREA NITROGEN [3]: 10.5 mg/dL
CARBON DIOXIDE [3]: 30.5 mmol/L
CHLORIDE [3]: 99.17 MEQ/L
CHOLESTEROL [3]: 80.33 mg/dL
CREATINE PHOSPHOKINASE [3]: 164.67 u/L
CREATININE [3]: 0.19 mg/dL
GLUCOSE [3]: 147.33 mg/dL
LACTATE DEHYDROGENASE [3]: 73.33 u/L
LIPASE [3]: 10.33 u/L
PHOSPHORUS [3]: 10.72 mg/dL
POTASSIUM [3]: 5.2 MEQ/L
SODIUM [3]: 143.78 MEQ/L
TOTAL BILIRUBIN [3]: 0.1 mg/dL
TOTAL PROTEIN [3]: 5.97 G/DL
URIC ACID [3]: 0.63 mg/dL
